Tests used:
Type in all cases: biochemical
[1] = molecular target: T1, cathepsin B (Homo sapiens, UniProt P07858); assay: Cathepsin B enzyme inhibition in vitro (kinetic fluorescence assay); conditions: Ki(cathepsin B)/Ki(calpain) ratio
T1 construct: cathepsin B—isolated from human liver; purchased Calbiochem 219362; host or cells: human liver (tissue isolate)
How it was run: (§1)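 Kinetic fluorescence (ex 390/em 460 nm), RT. Calpain-I: 20 nM erythrocyte-derived, 100 μM Suc-Leu-Tyr-AMC, imidazole/CaCl2, pH 7.3. Cathepsins, pH 6.0 MES/EDTA/cysteine: B 0.25 nM liver, 100 μM Z-Phe-Arg-AMC; L 1 nM liver, 2 μM Z-Phe-Arg-AMC; S 0.5 nM recombinant, 20 μM Z-Val-Val-Arg-AMC. Cheng-Prusoff Ki, mean of 2–4 curves.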

[2] = molecular target: T2, cathepsin K (Homo sapiens, UniProt P43235); assay: Cathepsin K enzyme inhibition in vitro (kinetic fluorescence assay); conditions: Ki(cathepsin K)/Ki(calpain) ratio
T2 construct: purchased Calbiochem 342001; host or cells: E. coli
T2 sequence (P43235 115-329): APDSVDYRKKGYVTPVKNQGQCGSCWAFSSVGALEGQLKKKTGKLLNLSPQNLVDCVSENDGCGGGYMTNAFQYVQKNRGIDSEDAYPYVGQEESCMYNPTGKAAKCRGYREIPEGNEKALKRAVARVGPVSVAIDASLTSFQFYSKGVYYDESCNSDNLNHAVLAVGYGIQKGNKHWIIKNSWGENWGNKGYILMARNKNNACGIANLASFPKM
Description: Testing for blockade of the corresponding enzymic activities was carried out by means of kinetic fluorescence assays (excitation 390 nm, emission 460 nm).
Apparent Ki values were calculated from the experimentally determined IC50 values by the Cheng-Prussoff relation assuming a reversible competitive enzyme inhibition. The Km values of the substrates used under the assay conditions indicated above were: 90 μM (Z-Phe-Arg-AMC, cathepsin B), 10 μM (Z-Gly-Pro-Arg-AMC, cathepsin K), 2 μM (Z-Phe-Arg-AMC, cathepsin L), and 30 μM (Z-Val-Val-Arg-AMC, cathepsin S).
The indicated Ki values are averages of the inhibition constants calculated on the basis of 2 to 4 independent dose-effect plots.
• 1. Calpain I: • 20 nM calpain-I—isolated from human erythrocytes (Calbiochem #208713), 100 μM Suc-Leu-Tyr-AMC (Bachem #1-1355) as substrate in buffer with 62 mM imidazole, 0.3 mM CaCl2, 0.10% CHAPS, 0.05% BSA, 1 mM DTT at pH 7.3 and room temperature. • 2. Cathepsin B: • 0.25 nM cathepsin B—isolated from human liver (Calbiochem #219362), 100 μM Z-Phe-Arg-AMC (Bachem #1-1160) as substrate 50 mM MES, 2 mM EDTA, 0.05% Brij 35, 2.5 mM L-cysteine, pH 6.0, room temperature. • 3. Cathepsin K: • 3 nM cathepsin K—activated from recombinant human procathepsin K from E. coli (Calbiochem #342001), 10 μM Z-Gly-Pro-Arg-AMC (Biomol #P-142) as substrate in 50 mM MES, 2 mM EDTA, 0.05% Brij 35, 2.5 mM L-cysteine, pH 6.0, room temperature. • 4. Cathepsin L: • 1 nM cathepsin L—isolated from human liver (Calbiochem #219402), 2 μM Z-Phe-Arg-AMC (Bachem #1-1160) as substrate in 50 mM MES, 2 mM EDTA, 0.05% Brij 35, 2.5 mM L-cysteine, pH 6.0, room temperature. • 5. Cathepsin S: • 0.5 nM recombinant human cathepsin S from E. coli (Calbiochem #219343), 20 μM Z-Val-Val-Arg-AMC (Bachem #1-1540) as substrate in 50 mM MES, 2 mM EDTA, 0.05% Brij 35, 2.5 mM L-cysteine, pH 6.0, room temperature.

[3] = molecular target: T3, cathepsin L (Homo sapiens, UniProt P07711); assay: Cathepsin L enzyme inhibition in vitro (kinetic fluorescence assay); conditions: Ki(cathepsin L)/Ki(calpain) ratio
T3 construct: cathepsin L—isolated from human liver; purchased Calbiochem 219402; host or cells: human liver (tissue isolate)
T3 sequence (P07711 114-333): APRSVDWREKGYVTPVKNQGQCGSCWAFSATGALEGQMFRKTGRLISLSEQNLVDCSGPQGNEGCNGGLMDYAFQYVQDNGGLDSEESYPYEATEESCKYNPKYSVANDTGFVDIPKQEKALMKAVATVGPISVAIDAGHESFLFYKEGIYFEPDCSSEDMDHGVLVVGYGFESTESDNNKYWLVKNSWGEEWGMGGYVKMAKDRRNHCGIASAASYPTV
How it was run: as §1

[4] = molecular target: T4, cathepsin S (Homo sapiens, UniProt P25774); assay: Cathepsin S enzyme inhibition in vitro (kinetic fluorescence assay); conditions: Ki(cathepsin S)/Ki(calpain) ratio
T4 construct: purchased Calbiochem 219343; host or cells: E. coli
T4 sequence (P25774 115-331): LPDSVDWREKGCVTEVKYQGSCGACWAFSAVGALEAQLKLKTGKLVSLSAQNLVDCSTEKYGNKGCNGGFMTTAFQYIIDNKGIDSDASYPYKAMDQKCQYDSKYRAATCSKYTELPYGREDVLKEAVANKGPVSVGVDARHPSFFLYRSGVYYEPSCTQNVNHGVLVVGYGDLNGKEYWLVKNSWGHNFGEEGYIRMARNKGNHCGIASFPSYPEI
How it was run: as §1

SMILES | Sel cat. B [1] | Sel cat. K [2] | Sel cat. L [3] | Sel cat. S [4]
COc1cc(Cl)ccc1-c1ccn(-c2ncccc2C(=O)NC(Cc2ccccc2)C(=O)C(N)=O)n1 (stereo not drawn) [Example 139, N-[3-Amino-2,3-dioxo-1-(phenylmethyl)propyl]-2-{3-[4-chloro-2-(methyloxy)phenyl]-1H-pyrazol-1-yl}pyridine-3-carboxamide] | + (+ means 10≦Ki(cathepsin B)/Ki(calpain)<30) | ++ (++ means a Ki(cathepsin K)/Ki(calpain) ratio of ≧30) | ++ (++ means a Ki(cathepsin L)/Ki(calpain) ratio of ≧50) | ++ (++ means a Ki(cathepsin S)/Ki(calpain) ratio of ≧100)
NC(=O)C(=O)C(Cc1cccc(F)c1)NC(=O)c1cccnc1-n1ccc(-c2ccccc2OC(F)(F)F)n1 (stereo not drawn) [Example 162, N-{3-Amino-1-[(3-fluorophenyl)methyl]-2,3-dioxopropyl}-2-(3-{2-[(trifluoromethyl)oxy]phenyl}-1H-pyrazol-1-yl)pyridine-3-carboxamide] | ++ (++ means a Ki(cathepsin B)/Ki(calpain) ratio of ≧30) | ++ (++ means a Ki(cathepsin K)/Ki(calpain) ratio of ≧30) | ++ (++ means a Ki(cathepsin L)/Ki(calpain) ratio of ≧50) | ++ (++ means a Ki(cathepsin S)/Ki(calpain) ratio of ≧100)
NC(=O)C(=O)C(Cc1ccccc1)NC(=O)c1cccnc1-n1cc2c(n1)-c1cc(Cl)ccc1OC2 (stereo not drawn) [Example 140, N-[3-Amino-2,3-dioxo-1-(phenylmethyl)propyl]-2-(8-chlorochromeno[4,3-c]pyrazol-2(4H)-yl)pyridine-3-carboxamide] | + (+ means 10≦Ki(cathepsin B)/Ki(calpain)<30) | ++ (++ means a Ki(cathepsin K)/Ki(calpain) ratio of ≧30) | ++ (++ means a Ki(cathepsin L)/Ki(calpain) ratio of ≧50) | ++ (++ means a Ki(cathepsin S)/Ki(calpain) ratio of ≧100)
COc1ccc(-c2ccn(-c3ncccc3C(=O)NC(Cc3ccccc3)C(=O)C(N)=O)n2)cc1 (stereo not drawn) [Example 48, N-(3-Amino-1-benzyl-2,3-dioxopropyl)-2-[3-(4-methoxyphenyl)-1H-pyrazol-1-yl]nicotinamide] | + (+ means 10≦Ki(cathepsin B)/Ki(calpain)<30) | + (+ means 10≦Ki(cathepsin K)/Ki(calpain)<30) | ++ (++ means a Ki(cathepsin L)/Ki(calpain) ratio of ≧50) | ++ (++ means a Ki(cathepsin S)/Ki(calpain) ratio of ≧100)
Cl.NC(=O)C(=O)C(Cc1cccnc1)NC(=O)c1cccnc1-n1ccc(-c2ccccc2)n1 (stereo not drawn) [Example 88, N-[3-Amino-2,3-dioxo-1-(pyridin-3-ylmethyl)propyl]-2-(3-phenyl-1H-pyrazol-1-yl)pyridine-3-carboxamide hydrochloride] | + (+ means 10≦Ki(cathepsin B)/Ki(calpain)<30) | ++ (++ means a Ki(cathepsin K)/Ki(calpain) ratio of ≧30) | ++ (++ means a Ki(cathepsin L)/Ki(calpain) ratio of ≧50) | ++ (++ means a Ki(cathepsin S)/Ki(calpain) ratio of ≧100)
COc1ccc(CC(NC(=O)c2cccnc2-n2ccc(-c3ccc(Cl)cc3Cl)n2)C(=O)C(N)=O)cc1 (stereo not drawn) [Example 98, N-(3-Amino-1-{[4-(methyloxy)phenyl]methyl}-2,3-dioxopropyl)-2-[3-(2,4-dichlorophenyl)-1H-pyrazol-1-yl]pyridine-3-carboxamide] | ++ (++ means a Ki(cathepsin B)/Ki(calpain) ratio of ≧30) | ++ (++ means a Ki(cathepsin K)/Ki(calpain) ratio of ≧30) | ++ (++ means a Ki(cathepsin L)/Ki(calpain) ratio of ≧50) | ++ (++ means a Ki(cathepsin S)/Ki(calpain) ratio of ≧100)
NC(=O)C(=O)C(Cc1ccc(OC(F)(F)F)cc1)NC(=O)c1cccnc1-n1ccc(-c2cccc(C(F)(F)F)c2)n1 (stereo not drawn) [Example 134, N-[3-Amino-2,3-dioxo-1-({4-[(trifluoromethyl)oxy]phenyl}methyl)propyl]-2-{3-[3-(trifluoromethyl)phenyl]-1H-pyrazol-1-yl}pyridine-3-carboxamide] | ++ (++ means a Ki(cathepsin B)/Ki(calpain) ratio of ≧30) | ++ (++ means a Ki(cathepsin K)/Ki(calpain) ratio of ≧30) | + (+ means 30≦Ki(cathepsin L)/Ki(calpain)<50) | + (+ means 50≦Ki(cathepsin S)/Ki(calpain)<100)
COc1ccc(CC(NC(=O)c2cccnc2-n2ccc(-c3ccccc3)n2)C(=O)C(N)=O)cc1 (stereo not drawn) [Example 80, N-[3-Amino-1-(4-methoxybenzyl)-2,3-dioxopropyl]-2-(3-phenyl-1H-pyrazol-1-yl)nicotinamide] | ++ (++ means a Ki(cathepsin B)/Ki(calpain) ratio of ≧30) | + (+ means 10≦Ki(cathepsin K)/Ki(calpain)<30) | ++ (++ means a Ki(cathepsin L)/Ki(calpain) ratio of ≧50) | ++ (++ means a Ki(cathepsin S)/Ki(calpain) ratio of ≧100)
NC(=O)C(=O)C(Cc1ccc(OC(F)(F)F)cc1)NC(=O)c1cccnc1-n1ccc(-c2ccc(F)cc2)n1 (stereo not drawn) [Example 132, N-[3-Amino-2,3-dioxo-1-({4-[(trifluoromethyl)oxy]phenyl}methyl)propyl]-2-[3-(4-fluorophenyl)-1H-pyrazol-1-yl]pyridine-3-carboxamide] | + (+ means 10≦Ki(cathepsin B)/Ki(calpain)<30) | ++ (++ means a Ki(cathepsin K)/Ki(calpain) ratio of ≧30) | ++ (++ means a Ki(cathepsin L)/Ki(calpain) ratio of ≧50) | ++ (++ means a Ki(cathepsin S)/Ki(calpain) ratio of ≧100)
NC(=O)C(=O)[C@H](Cc1ccccc1)NC(=O)c1cccnc1-n1ccc(-c2ccccc2)n1 [Example 107, N-[(1S)-3-Amino-2,3-dioxo-1-(phenylmethyl)propyl]-2-(3-phenyl-1H-pyrazol-1-yl)pyridine-3-carboxamide] | + (+ means 10≦Ki(cathepsin B)/Ki(calpain)<30) | + (+ means 10≦Ki(cathepsin K)/Ki(calpain)<30) | ++ (++ means a Ki(cathepsin L)/Ki(calpain) ratio of ≧50) | ++ (++ means a Ki(cathepsin S)/Ki(calpain) ratio of ≧100)
CC(C)c1ccc(-c2ccn(-c3ncccc3C(=O)NC(Cc3ccccc3)C(=O)C(N)=O)n2)cc1 (stereo not drawn) [Example 87, N-[3-Amino-2,3-dioxo-1-(phenylmethyl)propyl]-2-{3-[4-(1-methylethyl)phenyl]-1H-pyrazol-1-yl}pyridine-3-carboxamide] | ++ (++ means a Ki(cathepsin B)/Ki(calpain) ratio of ≧30) | ++ (++ means a Ki(cathepsin K)/Ki(calpain) ratio of ≧30) | ++ (++ means a Ki(cathepsin L)/Ki(calpain) ratio of ≧50) | ++ (++ means a Ki(cathepsin S)/Ki(calpain) ratio of ≧100)
NC(=O)C(=O)C(Cc1ccccc1)NC(=O)c1cccnc1-n1cc2c(n1)-c1ccccc1OC2 (stereo not drawn) [Example 100, N-[3-Amino-2,3-dioxo-1-(phenylmethyl)propyl]-2-chromeno[4,3-c]pyrazol-2(4H)-ylpyridine-3-carboxamide] | + (+ means 10≦Ki(cathepsin B)/Ki(calpain)<30) | ++ (++ means a Ki(cathepsin K)/Ki(calpain) ratio of ≧30) | ++ (++ means a Ki(cathepsin L)/Ki(calpain) ratio of ≧50) | ++ (++ means a Ki(cathepsin S)/Ki(calpain) ratio of ≧100)

From US9139557B2, “Carboxamide compounds and their use as calpain inhibitors” (Abbott GmbH & Co. KG, priority 2006, dated 2015)
